Patent publication US20070179161A1, “Pyrazolopyrimidine compounds and their use in medicine” (VERNALIS (CAMBRIDGE) LIMITED., priority 2003, published 2007)

How the values were obtained:
Format in all cases: biochemical
[1] = biological target: CDK-2 enzyme, complexed with cyclin A (Homo sapiens, UniProt P24941); experiment: CDK2 enzyme inhibition assay (33P phosphorylation of peptide […], filter plate); conditions: CDK-2/cyclin A, 0.1 mM ATP, 40 min at 30° C.
Method in brief: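 Cyclin A–complexed CDK2 (0.4 U/ml) incubated with inhibitor, 0.03 mM peptide, 0.1 mM ATP plus 33P-γ-ATP in HEPES pH 7.5, 7.5 mM Mg acetate, 0.1 mg/ml BSA, 40 min at 30 °C. Stopped with phosphoric acid; phosphorylated peptide captured on filter plates and counted by scintillation.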

GST-Chk1 enzyme = biological target: T1, GST-Chk1 enzyme (Homo sapiens, UniProt O14757); experiment: Chk1 kinase inhibition assay (33P phosphorylation of Chktide, filter plate); conditions: 0.01 mM ATP, 11 nM GST-Chk1, 40 minutes at 30° C.; read-out: Chk1 IC50
T1 sequence (O14757 1-476): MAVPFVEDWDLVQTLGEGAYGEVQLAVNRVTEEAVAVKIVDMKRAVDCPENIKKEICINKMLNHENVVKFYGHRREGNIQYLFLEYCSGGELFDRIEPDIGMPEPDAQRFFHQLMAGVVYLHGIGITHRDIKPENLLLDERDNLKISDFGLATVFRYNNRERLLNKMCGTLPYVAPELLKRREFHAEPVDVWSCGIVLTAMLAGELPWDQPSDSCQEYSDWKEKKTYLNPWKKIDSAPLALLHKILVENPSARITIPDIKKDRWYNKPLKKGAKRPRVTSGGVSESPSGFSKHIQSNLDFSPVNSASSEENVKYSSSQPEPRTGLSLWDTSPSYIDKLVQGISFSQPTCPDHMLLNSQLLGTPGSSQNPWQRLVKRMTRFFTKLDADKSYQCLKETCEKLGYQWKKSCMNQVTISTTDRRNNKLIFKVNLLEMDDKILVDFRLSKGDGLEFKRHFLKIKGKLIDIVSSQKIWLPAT
Method in brief: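 Inhibitor and enzyme reacted 40 min at 30 °C, then stopped with 50 mM phosphoric acid. Phosphorylated peptide captured on filter plates and quantified by scintillation counting.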

PDK1 enzyme = biological target: T2, PDK1 enzyme (Homo sapiens, UniProt O15530); experiment: PDK1 kinase inhibition assay (33P phosphorylation of synthetic peptide, filter plate); conditions: 0.01 mM ATP, 60 min at 30° C.; read-out: PDK1 IC50
T2 sequence (O15530 1-556): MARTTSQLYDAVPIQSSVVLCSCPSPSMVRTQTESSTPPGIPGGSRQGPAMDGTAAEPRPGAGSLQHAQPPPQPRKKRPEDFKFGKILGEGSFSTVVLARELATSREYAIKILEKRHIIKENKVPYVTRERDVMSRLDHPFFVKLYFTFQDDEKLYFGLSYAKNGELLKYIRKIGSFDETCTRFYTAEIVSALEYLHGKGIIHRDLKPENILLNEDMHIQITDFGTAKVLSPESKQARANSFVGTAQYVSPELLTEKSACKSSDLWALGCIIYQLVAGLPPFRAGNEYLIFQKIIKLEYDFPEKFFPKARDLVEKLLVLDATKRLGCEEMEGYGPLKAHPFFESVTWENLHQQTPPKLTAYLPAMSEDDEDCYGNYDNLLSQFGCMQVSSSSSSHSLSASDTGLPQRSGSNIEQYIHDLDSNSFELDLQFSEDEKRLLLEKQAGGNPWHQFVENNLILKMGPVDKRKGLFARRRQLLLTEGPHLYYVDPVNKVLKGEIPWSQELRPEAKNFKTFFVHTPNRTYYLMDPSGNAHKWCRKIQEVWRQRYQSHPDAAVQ
Method in brief: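 PDK1 and inhibitor incubated 60 min at 30° C with 0.01 mM ATP plus 33P-γ-ATP, 0.075 mM peptide, 7.5 mM Mg acetate, 0.1 mg/ml BSA in 0.05 M Tris.HCl pH 7.5. Stopped with phosphoric acid; phosphorylated peptide captured on filter plate and counted by scintillation.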

| Structure (SMILES) | IC50 [1] [µM] | IC50 (GST-Chk1 enzyme) [µM] | IC50 (PDK1 enzyme) [µM] |
| --- | --- | --- | --- |
| CC(C)c1cnn2c(Nc3ccc(S(C)(=O)=O)cc3)cc(N(C)CCN(C)C)nc12 [Example 58] | 1.94 | 51.7 | > 200 |
| CCc1cnn2c(Nc3ccc(S(C)(=O)=O)cc3)cc(Cl)nc12 [Example 43] | 0.107 | > 200 | > 200 |
| CN(C)S(=O)(=O)c1cccc(Nc2cc(N[C@H]3CC[C@H](N)CC3)nc3c(Br)cnn23)c1 [Example 94] | 0.07 | 27 | > 200 |
| NS(=O)(=O)c1ccc(Nc2cc(Cl)nc3ccnn23)cc1 [Example 12] | 0.72 | > 200 | > 200 |
| Cc1noc(C)c1-c1cc(Nc2ccc(F)cc2)n2nccc2n1 [Example 2, 5-(3,5-Dimethylisoxazole)-7-(4-fluorophenylamino)pyrazolo[1,5-a]pyrimidine] | 13.4 | > 200 | > 200 |
| CC(C)c1cnn2c(Nc3ccc(S(=O)(=O)N(C)C)cc3)cc(O[C@H]3CC[C@H](N)CC3)nc12 [Example 114] | 0.017 | 3.45 | 125 |
| CN(C)S(=O)(=O)c1cccc(Nc2cc(Cl)nc3c(Br)cnn23)c1 [Example 93] | 0.572 | > 200 | > 200 |
| CC(C)c1cnn2c(Nc3ccc(S(=O)(=O)N(C)C)cc3)cc(OC3CCCC3)nc12 [Example 54] | 1.31 | > 200 | > 200 |
| CCCN(CCC)[C@H]1CC[C@H](Nc2cc(Nc3ccc(S(=O)(=O)N(C)C)cc3)n3ncc(C(C)C)c3n2)CC1 [Example 125] | 0.155 | 20.5 | 19.9 |
| CC(C)c1cnn2c(Nc3ccc(S(=O)(=O)N(C)C)cc3)cc(N3CCCC(C(=O)O)C3)nc12 (stereo not drawn) [Example 82] | 4.23 | > 200 | > 200 |
| CC(C)c1cnn2c(Nc3ccc(S(=O)(=O)N(C)C)cc3)cc(N(C)c3ccncc3)nc12 [Example 119] | 22.7 | > 200 | > 200 |
| CC(C)c1cnn2c(Nc3ccc(S(=O)(=O)N(C)C)cc3)cc(N[C@H]3CC[C@H](O)CC3)nc12 [Example 101] | 0.024 | > 200 | 3.81 |
| CCOC(=O)c1cc(Nc2ccc(S(=O)(=O)N(C)C)cc2)n2ncc(C(C)C)c2n1 [Example 112] | 0.274 | > 200 | > 200 |
| CN(C)S(=O)(=O)c1ccc(Nc2cc(N[C@H]3CC[C@H](N)CC3)nc3c(Cl)cnn23)cc1 [Example 148] | 0.004 | 2 | 1.54 |
| NC(=O)c1ccc(Nc2cc(Cl)nc3c(Br)cnn23)cc1 [Example 145] | 0.08 | 11 | > 50 |
| CC(C)c1cnn2c(Nc3ccc(S(N)(=O)=O)cc3)cc(Cl)nc12 [Example 32] | 0.062 | > 200 | > 200 |
| COCCN(C)S(=O)(=O)c1ccc(Nc2cc(Cl)nc3c(C(C)C)cnn23)cc1 [Example 96] | 0.124 | > 200 | > 200 |
| CC(C)c1cnn2c(Nc3ccc(S(=O)(=O)N(C)CCO)cc3)cc(N3CCCC(CO)C3)nc12 (stereo not drawn) [Example 55] | 0.27 | > 200 | > 200 |
| Oc1cccc(-c2cc(Nc3ccccc3)n3nccc3n2)c1 [Example 6] | 5.65 | > 200 | > 200 |
| CC(C)c1cnn2c(Nc3ccc(S(C)(=O)=O)nc3)cc(N[C@H]3CC[C@H](N)CC3)nc12 [Example 107] | 0.101 | 19.6 | 96.5 |
| CC(C)c1cnn2c(Nc3ccc(S(=O)(=O)N(C)C)cc3)cc(N3CCCC(CN(C)C)C3)nc12 (stereo not drawn) [Example 89] | 8.27 | > 200 | > 200 |
| CC(C)c1cnn2c(Nc3ccc(S(=O)(=O)NCCN(C)C)cc3)cc(OC3CCCCC3)nc12 [Example 91] | 0.881 | 5.36 | > 200 |
